Source: patent EP0621342A1, “Reagent and kit for determining isoprenylating activity and inhibition thereof” (NEDERLANDSE ORGANISATIE VOOR …, priority 1993, dated 1994)

Target: protein:farnesyltransferase (Oryctolagus cuniculus, UniProt G1SFC8+G1T7D9)
Experiment: Inhibition of protein:farnesyl transferase activity in rabbit reticulocyte lysate (Sepharose-bound peptide, 3H-FPP)
Type: biochemical
Settings: 80 pmol of pepAsep and pepBsep/5 µl beads, 0.7 µM ³H-FPP, 30 min at 37°C, read-out: IC₅₀-value
Protocol: Commercially available rabbit reticulocyte lysate contains enzymes necessary for protein-isoprenylation, such as protein:farnesyl transferase activity (Vorburger, K., Kitten, G.T. and Nigg, E.G., EMBO J. 8 (1989) 4007-4013) and protein:geranylgeranyl transferase (Maltese, W.A. and Robishaw, J.D., J. Biol. Chem. 265 (1990) 18071-18074). Using pepAsep (example I) as substrate and pepBsep (example I) as control the assay of protein:farnesyl transferase activity was performed as follows: In 25 µl of a mixture containing 5 µl of pepAsep or pepBsep (both containing an equal quantity of peptide), 13 µl rabbit reticulocyte lysate (Promega), 0.5 mM MgCl₂, 1 mM DTT, 50 mM Tris-HCl (pH 7.4) and [³H]-farnesyl pyrophosphate (³H-FPP; concentration as indicated in the figures; specific radioactivity 15 Ci/mmol; ARC, USA) the incubation was performed at 37°C for 30 min with continuous shaking. […] The radioactivity bound to the Sepharose was measured in a Packard Tricarb liquid scintillation counter. […]
80 pmol of pepAsep and pepBsep/5 µl Sepharose were incubated for 30 minutes in the presence of 0.7 µM of [³H]-FPP and the indicated concentrations of the farnesyl pyrophosphate analogues FPPA1 and FPPA2 as mentioned in Example IV. The farnesylation activity was calculated as ³H-dpm bound to pepAsep minus the pepBsep-bound-dpm and expressed as percentage of control (without inhibitor). […]

Row | Compound | IC50
1 | CC(C)=CCCC(C)=CCCC(C)=CCP(=O)(O)OP(=O)(O)O [FPPA2, farnesyl phosphonophosphate] | 290 ± 20 nM
2 | CC(C)=CCC/C(C)=C/CC/C(C)=C/COCP(=O)(O)CP(=O)(O)O [FPPA1, (E,E) -[Hydroxy-(3,7,11-trimethyl-2,6,10-dodecatrienyloxymethylphosphinyl)methyl]phosphonic acid] | 5260 ± 1100 nM
